Experimental data: ChEMBL document CHEMBL1201862, “PubChem BioAssay data set” (2004)
The source made the active and inactive calls. Numbered stars: 1 amine (or outer) side, 2 acyl side, 3 side chain; on linkers, the order of the positions; unused ones are H or OH. Square brackets hold non-standard residues; d marks the D form. Peptide text beside a SMILES is read from it. ξ: configuration not given here. X1 = CCCCCCC[C@H](O)C[C@@H](N[*:1])[C@@H](O)C(=O)[*:2]; X3 = COc1ccc(CCCC(N[*:1])C(=O)[*:2])cc1; ξThr(3R) = C[C@@H](O)C(N)C(=O)O; NMeN = CN[C@@H](CC(N)=O)C(=O)O; X2 = C/C=C(/N[*:1])C(=O)[*:2]; Dhb = C/C=C(\N)C(=O)O; Sar = CNCC(=O)O

What was measured:
[1] = inhibitors of HIV Env-driven cell fusion, dose response, cherry-pick (AID 652057); assay type: functional, cell-based
[2] = CEM21 lymphoblast cell cytotoxicity, dose response, cytotoxicity control for viral fusion inhibitor project, CellTiter-Glo luminescence, cherry-picked (AID 652042); assay type: functional, cell-based;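 also: potency for signal decrease meaning cytotoxicity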
[3] = target: T1, Short transient receptor potential channel 4 (Mus musculus, UniProt Q9QUQ5); test: mouse TRPC4 channel activators, dose response, cell-based, HEK293 TRPC4/mu-opioid, Fluo-4 calcium (AID 434937); assay type: functional
T1 sequence (Q9QUQ5 whole entry): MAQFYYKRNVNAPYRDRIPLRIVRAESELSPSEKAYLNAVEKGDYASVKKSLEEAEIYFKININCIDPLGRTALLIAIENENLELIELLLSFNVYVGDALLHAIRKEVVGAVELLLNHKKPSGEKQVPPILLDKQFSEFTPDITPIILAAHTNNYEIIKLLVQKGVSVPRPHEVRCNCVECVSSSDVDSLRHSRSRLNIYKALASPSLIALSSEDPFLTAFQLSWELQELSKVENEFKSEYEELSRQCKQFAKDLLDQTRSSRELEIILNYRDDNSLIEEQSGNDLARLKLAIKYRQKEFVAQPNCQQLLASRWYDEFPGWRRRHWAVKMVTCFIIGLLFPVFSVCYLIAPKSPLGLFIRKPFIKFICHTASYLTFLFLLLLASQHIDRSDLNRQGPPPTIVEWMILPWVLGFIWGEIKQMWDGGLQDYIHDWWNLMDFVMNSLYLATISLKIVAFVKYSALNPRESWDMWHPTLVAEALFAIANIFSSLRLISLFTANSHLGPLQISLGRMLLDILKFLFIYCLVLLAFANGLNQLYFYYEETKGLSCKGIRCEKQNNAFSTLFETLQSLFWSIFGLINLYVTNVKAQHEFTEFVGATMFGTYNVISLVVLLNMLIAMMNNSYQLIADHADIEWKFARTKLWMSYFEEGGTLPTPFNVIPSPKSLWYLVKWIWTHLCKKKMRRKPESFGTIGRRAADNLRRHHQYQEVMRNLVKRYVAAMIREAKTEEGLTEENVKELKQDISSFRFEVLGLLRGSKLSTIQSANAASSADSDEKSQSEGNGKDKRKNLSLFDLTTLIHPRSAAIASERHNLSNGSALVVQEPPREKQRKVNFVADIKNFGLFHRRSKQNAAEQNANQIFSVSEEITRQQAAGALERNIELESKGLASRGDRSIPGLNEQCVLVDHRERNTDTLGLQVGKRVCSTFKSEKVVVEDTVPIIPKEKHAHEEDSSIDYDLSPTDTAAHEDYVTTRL

[4] = ZM109 Env clade C HIV-1 fusion inhibitors, dose response, HeLa effector, CEM target cells, luciferase, cherry-pick (AID 652058); assay type: functional, cell-based
[5] = inhibitors of clade B AD8 Env fusion, dose response, cell-based, cherry-pick (AID 652062); assay type: functional;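 also: luciferase signal from cell-cell fusion driven by HIV-1 clade B AD8 Env; potency is for inhibitors of fusion seen as a drop in luminescence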
[6] = off-target signal loss in HeLa-CEM21 co-culture – HeLa F-luc CTL cells, cherry-picked, counter-screen for HIV-1 Env fusion inhibitor project, dose response (AID 652040); assay type: functional, cell-based;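 also: potency for signal decrease marking cytotoxic or nonspecific inhibition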
Albumin = Albumin (Bos taurus, UniProt P02769); test: Counterscreen for inhibitors of T-cell receptor (TCR)-CD3 interaction: Fluorescence-based biochemical high throughput dose response assay to identify inhibitors of T-cell receptor (TCR)-CD3 interaction using a TAMRA-labeled BSA probe.; assay type: functional
[7] = HepG2 cell cytotoxicity, dose response, cytotoxicity control for Shn3 inhibitor project, CellTiter-Glo, cherry-picked (AID 624134); assay type: functional, cell-based
Protein Wnt-3a = Protein Wnt-3a (Mus musculus, UniProt P27467); test: Wnt3a-driven reporter signaling inhibition, dose response, selectivity assay for Gli-SUFU antagonist project, Wnt-LIGHT cells, luminescence (AID 651570); assay type: functional; settings: read-out: IC50_Mean;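 also: Wnt-LIGHT reporter cells stimulated with conditioned medium from Wnt3a-producing cells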
[8] = target: T2, Heat shock factor protein 1 (Mus musculus, UniProt P38532); test: inhibition of MG132-induced HSE-luciferase signal, confirmation, cell-based, NIH3T3, luminescence, dose retest (AID 2382); assay type: functional;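 also: NIH3T3 fibroblasts with HSF1-driven luciferase reporter stressed by proteasome inhibitor MG132; luminescence from HSF1-driven luciferase expression after 8 hours of MG132 stress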
T2 sequence (P38532 whole entry): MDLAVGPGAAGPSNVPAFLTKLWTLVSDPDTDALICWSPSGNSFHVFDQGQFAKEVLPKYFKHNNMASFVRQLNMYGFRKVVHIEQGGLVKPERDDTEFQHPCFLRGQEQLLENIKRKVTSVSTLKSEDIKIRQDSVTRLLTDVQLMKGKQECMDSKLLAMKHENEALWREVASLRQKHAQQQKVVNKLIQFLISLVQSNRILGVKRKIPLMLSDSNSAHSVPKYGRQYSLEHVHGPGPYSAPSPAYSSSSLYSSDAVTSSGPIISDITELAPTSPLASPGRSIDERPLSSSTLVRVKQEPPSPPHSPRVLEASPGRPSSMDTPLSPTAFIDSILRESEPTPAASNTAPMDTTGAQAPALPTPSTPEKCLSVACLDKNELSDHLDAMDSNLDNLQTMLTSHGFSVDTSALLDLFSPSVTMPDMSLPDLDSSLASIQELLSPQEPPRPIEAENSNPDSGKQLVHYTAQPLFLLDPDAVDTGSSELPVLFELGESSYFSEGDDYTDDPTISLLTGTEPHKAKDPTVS

cells [9] = assay type: functional
[10] = Shn3 3'UTR reporter inhibitors, dose response, cell-based, Clone20 osteoblasts, firefly luciferase, cherry-picked (AID 624132); assay type: functional;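 also: firefly luciferase luminescence from reporter carrying the Shn3 3'UTR in osteoblasts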
[11] = Luminescence Cell-Based Dose Response HTS to Identify Inhibitors of 5'UTR Stem-Loop Driven Prion Protein mRNA Translation in H4 Neuroglioblastoma Cells. [Related pubchem assays: 1827 (Project Summary), 1813 (Primary HTS)]; assay type: functional
INS1 = test: beta cell apoptosis inhibitors, cytokine rescue, dose response, luminescence, retest (AID 449756); assay type: functional, cell-based; settings: Rattus norvegicus;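 also: cell death triggered by IL-1 beta plus TNF-alpha plus IFN-gamma mixture; protective hits raise ATP signal compared with cytokine alone wells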
[12] = inhibitors of firefly luciferase expression or activity, dose response, H4 neuroglioma cells, luminescence (AID 1990); assay type: functional, cell-based
H9c2 = test: cells; assay type: functional, cell-based; settings: Rattus norvegicus, H9c2, Myocardium;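 also: confirmatory concentration-response retest of ultra-high-throughput screening hits for modulation of myocardial damage; cell death induced by hydrogen peroxide oxidative stress; compound pretreatment for 60 min then peroxide exposure for 2 h; potency is for protecting the cells against peroxide damage rather than for killing them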
[13] = inhibitors of SNCA 5'UTR-driven reporter translation, confirmation, H4 neuroglioma cells, luminescence (AID 1988); assay type: functional, cell-based
[14] = control 3'UTR Renilla luciferase suppression, dose response, counter-screen for Shn3 inhibitor project, cell-based, Clone20-Shn3RL, cherry-picked (AID 624133); assay type: functional
cells [15] = assay type: functional, cell-based
cells [16] = assay type: functional, cell-based; remark: listed apart in the source
[17] = target: T3, Long-chain-fatty-acid--AMP ligase FadD28 (Mycobacterium tuberculosis, UniProt P9WQ59); test: Fluorescence polarization aasay to screen for inhibitors that compete for the binding of FadD28 to a bisubstrate Measured in Biochemical System Using Plate Reader - 2147-01_Inhibitor_Dose_CherryPick_Activity.; assay type: functional, Mycobacterium tuberculosis H37Rv
T3 sequence (P9WQ59 whole entry): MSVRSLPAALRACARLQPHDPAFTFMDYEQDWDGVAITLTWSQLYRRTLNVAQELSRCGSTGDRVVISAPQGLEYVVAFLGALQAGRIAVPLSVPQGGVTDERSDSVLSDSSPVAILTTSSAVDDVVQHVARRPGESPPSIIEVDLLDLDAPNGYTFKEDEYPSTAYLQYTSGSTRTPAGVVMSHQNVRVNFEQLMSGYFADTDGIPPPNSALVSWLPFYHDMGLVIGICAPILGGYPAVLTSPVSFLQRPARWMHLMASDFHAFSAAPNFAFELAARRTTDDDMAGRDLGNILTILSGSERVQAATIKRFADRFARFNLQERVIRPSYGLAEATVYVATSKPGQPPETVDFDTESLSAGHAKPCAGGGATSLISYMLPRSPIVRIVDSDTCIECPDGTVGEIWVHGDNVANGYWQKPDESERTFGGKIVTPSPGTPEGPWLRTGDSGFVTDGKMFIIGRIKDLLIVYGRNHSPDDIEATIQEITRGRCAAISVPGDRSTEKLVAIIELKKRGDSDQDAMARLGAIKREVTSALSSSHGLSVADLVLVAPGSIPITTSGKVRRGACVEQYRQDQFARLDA

[18] = cytotoxicity in MIN6 insulinoma cells, dose response, cytotoxicity control, cell-based, mouse insulinoma (AID 2122); assay type: functional;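 also: confirmatory high-throughput counterscreen run to flag cytotoxic compounds; mouse MIN-6 beta cells carrying an insulin promoter eGFP reporter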
[19] = insulin promoter down-regulators in MIN6 cells, imaging, high-content screening, mouse beta cells (AID 1628); assay type: functional
[20] = target: T1, Short transient receptor potential channel 4; test: mouse TRPC4 channel inhibitors, dose response, cell-based, HEK293 TRPC4/mu-opioid, Fluo-4 calcium (AID 434942); assay type: functional;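 also: potency of inhibitors blocking the TRPC4 calcium response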

Sequence of Protein Wnt-3a (P27467 whole entry): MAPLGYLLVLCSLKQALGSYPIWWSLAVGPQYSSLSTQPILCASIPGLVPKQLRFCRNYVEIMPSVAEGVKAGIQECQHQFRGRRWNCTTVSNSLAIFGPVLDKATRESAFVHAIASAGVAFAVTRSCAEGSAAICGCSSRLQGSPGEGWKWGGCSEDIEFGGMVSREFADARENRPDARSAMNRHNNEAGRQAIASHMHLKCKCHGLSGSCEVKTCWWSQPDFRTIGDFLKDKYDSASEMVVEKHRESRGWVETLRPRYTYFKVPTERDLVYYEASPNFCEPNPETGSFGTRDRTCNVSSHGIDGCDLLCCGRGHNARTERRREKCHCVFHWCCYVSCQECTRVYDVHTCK
Sequence of Albumin (P02769 whole entry): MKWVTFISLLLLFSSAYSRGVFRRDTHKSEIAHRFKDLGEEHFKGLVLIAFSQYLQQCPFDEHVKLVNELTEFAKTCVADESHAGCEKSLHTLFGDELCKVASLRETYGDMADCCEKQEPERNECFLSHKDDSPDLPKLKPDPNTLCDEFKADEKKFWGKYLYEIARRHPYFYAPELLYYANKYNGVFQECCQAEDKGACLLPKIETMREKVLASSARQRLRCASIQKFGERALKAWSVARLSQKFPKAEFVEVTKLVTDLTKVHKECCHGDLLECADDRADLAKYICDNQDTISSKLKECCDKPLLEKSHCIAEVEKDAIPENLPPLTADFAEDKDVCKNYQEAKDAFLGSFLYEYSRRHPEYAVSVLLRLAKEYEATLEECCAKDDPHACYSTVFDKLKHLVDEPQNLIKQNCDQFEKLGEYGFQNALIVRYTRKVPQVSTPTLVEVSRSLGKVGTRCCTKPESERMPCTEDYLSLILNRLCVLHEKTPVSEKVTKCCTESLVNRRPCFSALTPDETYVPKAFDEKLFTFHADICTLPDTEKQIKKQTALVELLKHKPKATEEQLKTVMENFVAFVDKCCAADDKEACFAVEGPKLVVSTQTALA

CCOc1cc(CNCCc2c[nH]c3ccccc23)cc(Cl)c1OC
AC50 [1]: 1.77 µM (active)
AC50 [2]: 21.5 µM (active)
EC50 [3]: 3.35 µM (active)
AC50 [4]: 0.843 µM (active)
AC50 [5]: 5.22 µM (active)
AC50 [6]: 2.85 µM (active)

Cc1ccc(/C=C2\SC(=S)N(CCC(=O)NNC(=O)c3ccccc3O)C2=O)cc1
IC50 (Albumin): > 94.1 µM (inactive)

Cc1cc(Cl)ccc1OCC(=O)N1CCCN(C(=O)COc2ccc(Cl)cc2C)CC1
AC50 [1]: 1.98 µM (active)
AC50 [2]: 67.3 µM (active)
AC50 [4]: 2.8 µM (active)
AC50 [5]: 2.45 µM (active)
AC50 [6]: 2.71 µM (active)

COc1ccc(CN2CCC(C(=O)Nc3ccc(Oc4cccnc4)cc3)CC2)c(C)c1C
AC50 [7]: 12.9 µM (active)
IC50 (Protein Wnt-3a): 5.34 µM (active)
EC50 [8]: > 195 µM (not active)
IC50 (cells [9]): 10.3 µM (active)
AC50 [10]: 3.68 µM (active)

O=C(CCN1C(=O)/C(=C\c2ccccc2)SC1=S)NNC(=O)c1ccccc1O
IC50 (Albumin): > 94.1 µM (inactive)

COc1ccc2nc(Nc3nc(O)cc(CSc4nc5ccccc5[nH]4)n3)nc(C)c2c1
AC50 [1]: 2.16 µM (active)
AC50 [2]: 5.77 µM (active)
EC50 [11]: 10.2 µM (active)
AC50 [4]: 3.57 µM (active)
AC50 [5]: 4 µM (active)
AC50 (INS1): 20.5 µM (active)
EC50 [12]: 5.63 µM (active)
IC50 (H9c2): > 79 µM (inactive)
AC50 [6]: 3.06 µM (active)
EC50 [13]: 10.2 µM (active)

CCCCn1c(CN(C)Cc2ccccc2)nc2c1c(=O)n(C)c(=O)n2C
AC50 [7]: 68.8 µM (active)
IC50 (Protein Wnt-3a): 4.51 µM (active)
AC50 [5]: 4.78 µM (active)
AC50 [14]: 2.08 µM (active)
AC50 [10]: 2.38 µM (active)

CCOC(=O)C(NCCc1ccccc1)(NC(C)=O)C(F)(F)F (stereo not drawn)
EC50 (cells [15]): > 29.9 µM (inactive)
IC50 (cells [16]): > 29.9 µM (inactive)

COc1ccc(-c2nnn(CC(=O)c3c[nH]c4ccccc34)n2)cc1OC
AC50 [17]: > 100 µM (inactive)

COc1ccc(-c2nn(C)c(=O)c3ccccc23)cc1NC(=O)COc1ccccc1
AC50 [2]: 42.7 µM (active)
AC50 [6]: 46.2 µM (active)

COCCn1c(CN2CCC(Cc3ccccc3)CC2)nc2c1c(=O)n(C)c(=O)n2C
IC50 (Protein Wnt-3a): 2.11 µM (active)
IC50 [18]: 0.355 µM (active)
IC50 [19]: 0.597 µM (active)

Cc1cccc(NC(=O)CN2C(=O)N/C(=C/c3cc(C)n(-c4ccncc4)c3C)C2=O)c1
AC50 [17]: 18.7 µM (active)

O=C(CNC(=O)c1ccccc1Cl)N/N=C/C=C/c1ccccc1
EC50 (cells [15]): > 29.9 µM (inactive)
IC50 (cells [16]): > 29.9 µM (inactive)

CC1Oc2ccccc2C=C1/C=N/Nc1ccc(C(=O)O)cc1 (stereo not drawn)
AC50 [17]: 34.2 µM (active)
EC50 [20]: 2.99 µM (active)

O=C(CNC(=O)c1ccc([N+](=O)[O-])cc1)N/N=C/c1c[nH]c2ccccc12
AC50 [17]: 30.2 µM (active)

C/C=C1\NC(=O)[C@H](CC(N)=O)N(C)C(=O)C([C@@H](C)O)NC(=O)C(CCCc2ccc(OC)cc2)NC(=O)[C@H](C(C)C)NC(=O)/C(=C\C)NC(=O)[C@H](O)[C@@H](C[C@@H](O)CCCCCCC)NC(=O)[C@H](C)NC(=O)CN(C)C(=O)[C@H](CCC(N)=O)NC1=O (stereo partly drawn) (cyclo(A[X1][X2]V[X3][ξThr(3R)][NMeN][Dhb]Q[Sar]))
AC50 [17]: > 100 µM (inactive)
